Assay results as given in patent US20110218360A1, “PREPARATION OF RASAGILINE AND SALTS THEREOF” (DR. REDDY'S LABORATORIES LTD., priority 2008, published 2011).
Structures can show the parent of a compound that is named as a salt. Where two headings read alike, the source gives them in different places.

Columns and labels:
[1] = particle size distribution after micronisation
Description: (§1) The D10, D50, and D90 values are useful for indicating a particle size distribution. D90 refers to 90 volume percent of the particles having a size smaller than the specified value. Likewise D10 refers to 10 volume percent of the particles having a size smaller than the specified value. D50 refers to 50 volume percent of the particles having a size smaller than the specified value. Methods for determining D10, D50 and D90 include laser diffraction, such as using Malvern equipment (from Malvern Instruments Limited, Malvern, Worcestershire, United Kingdom).

[2] = for D10 / D50 / D90: storage at 25±2° C., relative humidity 65±5%; for change of particle size distribution / agglomerate formation on storage: ambient storage, up to 18 days, exposure to atmosphere
Description: as §1
Rasgiline mesylate (6 g) prepared according to Example 28 is divided into three parts for storage under ambient conditions (temperature=25±2° C.; relative humidity=65±5%): unpackaged (P-I); in closed packages with a nitrogen atmosphere (P-II); and in closed packages with an air atmosphere (P-III). The samples are analyzed for particle size distribution on the 5th and 18th days.

D10 [1] [μm] | D50 [1] [μm] | D90 [1] [μm] | D[4,3] [1] [μm] | D10 ([2]; 5th day) [μm] | D50 ([2]; 5th day) [μm] | D90 ([2]; 5th day) [μm] | Structure (SMILES) | also measured
0.779 | 2.285 | 5.517 | – | – | – | – | C#CCN[C@@H]1CCc2ccccc21 [Example 27, Rasagiline mesylate] | –
0.663 | 1.592 | 3.219 | 1.792 | – | – | – | C#CCN[C@@H]1CCc2ccccc21 [Example 28, Rasagiline mesylate] | –
0.761 | 2.346 | 4.981 | 2.650 | – | – | – | C#CCN[C@@H]1CCc2ccccc21 [Example 30, Rasagiline mesylate] | –
2.404 | 146.957 | 608.570 | – | – | – | – | C#CCN[C@@H]1CCc2ccccc21 [Example 31, Rasagiline mesylate] | –
0.991 | 3.093 | 6.540 | 3.496 | – | – | – | C#CCN[C@@H]1CCc2ccccc21 [Example 32, Rasagiline mesylate] | –
– | – | – | – | 1.319 | 4.216 | 151.379 | C#CCN[C@@H]1CCc2ccccc21 [P-I, Rasgiline mesylate] | –
– | – | – | – | 0.892 | 2.859 | 5.524 | C#CCN[C@@H]1CCc2ccccc21 [P-II, Rasgiline mesylate] | change of particle size distribution / agglomerate formation on storage [2]: substantially unchanged; D10 ([2]; 18th day): 1.065 μm; D50 ([2]; 18th day): 3.227 μm; D90 ([2]; 18th day): 6.282 μm
– | – | – | – | 1.182 | 3.566 | 120.731 | C#CCN[C@@H]1CCc2ccccc21 [P-III, Rasgiline mesylate] | D10 ([2]; 18th day): 1.365 μm; D50 ([2]; 18th day): 4.171 μm; D90 ([2]; 18th day): 144.617 μm
– | – | – | – | – | – | – | C#CCN[C@@H]1CCc2ccccc21 [rasagiline mesylate, (1R)—N-prop-2-ynyl-2,3-dihydro-1H-inden-1-amine methanesulfonate, reference compound] | change of particle size distribution / agglomerate formation on storage ([2]; methanesulfonate): susceptible to agglomerate formation
